Data taken from patent US8883798B2, “Pyrimidine compounds inhibiting the formation of nitric oxide and prostaglandin E2, method of production thereof and use thereof” (Ustav Organicke Chemie a Biochemie Akademie Ved CR, V.V.I., priority 2011, dated 2014).

Tests used:
[1] = tested on: production of nitric oxide (NO); assay: Production of nitric oxide (NO) in cultures of mouse peritoneal cells stimulated with IFN-γ plus LPS (Griess reagent); assay type: cell-based, mice; settings: substance 50 μmol·l^−1, IFN-g plus LPS, 24 h
Procedure: (§1) Under in vitro conditions, the effect of the pyrimidine compounds according to this invention was tested in terms of the production of nitric oxide (NO) and in terms of the production of prostaglandin E2 (PGE2) in cultures of the peritoneal cells of mice.
NO is a product of the metabolism of L-arginine, quickly changes to […], which are then measured using the Griess reagent system. Under normal conditions, the production of NO is practically zero. It only occurs after some stimulation. In these experiments, interferon-gamma (IFN-γ) and bacterial lipopolysacharide (LPS) were used as stimulators. The values of NO induced in this way fluctuated in the individual experiments in a range from 52 to 89 μmol·l^−1; for the purposes of comparison between the experiments they were considered as 100%. The production of NO after the application of the substances was expressed in percentage with respect to the control values. (The lower the value, the higher the inhibition effect of the substances on NO production.) IC50 are the concentrations of the substances reducing the production of NO by 50% with respect to the controls.
(§2) Experiments were performed on mice peritoneal cells C57BL/6 (Charles River, Germany—AnLabu).
(§3) NO production was induced using IFN-g (5000 pg/mL) plus LPS (100 pg/mL); evaluated (Griess reagent) after 24 h of the cell cultivation (2×10^6/mL). PGE2 was induced using LPS (10 ng/mL); evaluated (ELISA) following 6 h cultivation of cells (3×10^6/mL). Cell longevity was evaluated using WST-1 (tetrazolium salt), following 24 h cultivation of cells (1×10^6/mL). The values mentioned in the table represent the effects of the substances tested in a concentration of 50 μmol·l^−1.

peritoneal cells of mice = assay: Cell viability of mouse peritoneal cells (WST-1 kit); assay type: cell-based; settings: substance 50 μmol·l^−1, 24 h; for Cell viability in % of the controls: Table 3A; for Cell viabilities in % of the controls: Table 3B
Procedure: Cell viability was determined in the standard way using a WST-1 kit (Roche). The values of the viability of the control cells were for the purposes of comparison between experiments considered as 100%. The influence of the substances on the longevity of the cells was evaluated in percentage with respect to the control values.
as §2, §3

[2] = tested on: production of prostaglandin E2 (PGE2); assay: Production of prostaglandin E2 (PGE2) in cultures of mouse peritoneal cells stimulated with LPS (ELISA kit); assay type: cell-based, mice; settings: for Production of prostaglandins in % of the controls: Table 3A, substance 50 μmol·l^−1, 6 h; for Production of prostaglandins IC50 (μmol · 1^−1) average value and range of values: Table 3B, 6 h
Procedure: as §1
The influence on the production of prostaglandin E2 (PGE2) in vitro caused by the activity of the pyrimidine compounds according to the submitted invention was determined in cultures of the peritoneal cells of mice using a commercial kit (R&DSystems). The concentrations of PGE2 after lipopolysacharide (LPS) stimulation reached in the individual experiments values in a range of 22 to 91 ng·ml^−1 and for the purposes of comparison between the experiments were considered as 100%. The influence of the substances on the production of PGE2 was evaluated in percentage with respect to the control values.
as §2, §3

Row | Production of prostaglandins IC50 (μmol · 1^−1) average value and range of values [2] | SMILES | Production of nitric oxide in % of the controls ([1]; Table 3A) | Cell viability in % of the controls (peritoneal cells of mice) | Production of prostaglandins in % of the controls [2] | Production of nitric oxide in % of the controls ([1]; Table 3B) | Cell viabilities in % of the controls (peritoneal cells of mice)
1 | – | C=CCc1c(Cl)nc(N)nc1Cl [Substance 32] | 41.72 ± 9.27 % of the controls | 93.55 ± 19.55 % of the controls | 90.81 ± 5.95 % of the controls | – | –
2 | – | Cc1c(Cl)nc(NC=O)nc1Cl [Substance 48] | 1.35 ± 0.01 % of the controls | 66.37 ± 8.13 % of the controls | 36.31 ± 1.99 % of the controls | – | –
3 | – | CCc1c(Cl)nc(NC=O)nc1Cl [Substance 49] | 5.76 ± 2.48 % of the controls | 111.37 ± 10.44 % of the controls | 20.58 ± 2.13 % of the controls | – | –
4 | – | CCCc1c(Cl)nc(NC=O)nc1Cl [Substance 50] | 3.95 ± 2.27 % of the controls | 98.59 ± 6.59 % of the controls | 14.20 ± 7.00 % of the controls | – | –
5 | – | CCC(C)c1c(Cl)nc(NC=O)nc1Cl (stereo not drawn) [Substance 54] | 0.17 ± 0.17 % of the controls | 77.51 ± 14.73 % of the controls | 30.48 ± 1.79 % of the controls | – | –
6 | – | O=CNc1nc(Cl)c(-c2ccccc2)c(Cl)n1 [Substance 56] | 0.80 ± 0.37 % of the controls | 48.49 ± 4.44 % of the controls | 46.40 ± 0.28 % of the controls | – | –
7 | – | C=CCc1c(Cl)nc(NC=O)nc1Cl [Substance 57] | 1.21 ± 0.28 % of the controls | 95.37 ± 15.40 % of the controls | 16.42 ± 0.64 % of the controls | – | –
8 | – | O=CNc1nc(Cl)c(Cc2ccccc2)c(Cl)n1 [Substance 59] | 0.15 ± 0.01 % of the controls | 58.75 ± 5.34 % of the controls | 3.84 ± 0.11 % of the controls | – | –
9 | 76.75 ± 10.63; n = 4 μmol · 1^−1 | CCCCc1c(-c2ccccc2)nc(N)nc1-c1ccccc1 [Substance 67] | – | – | – | 80.37 ± 1.36; n = 4 % of the controls | 93.60 ± 2.81; n = 4 % of the controls
10 | 18.12 ± 0.99; n = 6 μmol · 1^−1 | CCCCc1c(Cl)nc(N)nc1-c1ccccc1 [Substance 68] | – | – | – | 27.78 ± 2.11; n = 4 % of the controls | 94.17 ± 8.43; n = 8 % of the controls
11 | 75.40 ± 21.62; n = 4 μmol · 1^−1 | CCCCc1c(-c2ccccc2)nc(N)nc1-c1ccc(F)cc1 [Substance 69] | – | – | – | 71.24 ± 4.28; n = 4 % of the controls | 121.04 ± 9.53; n = 4 % of the controls
12 | 51.70 ± 13.80; n = 2 μmol · 1^−1 | CCCCc1c(-c2ccc(F)cc2)nc(N)nc1-c1ccc(F)cc1 [Substance 70] | – | – | – | 87.03 ± 3.75; n = 4 % of the controls | 108.03 ± 9.80; n = 4 % of the controls
13 | 26.66 ± 11.71; n = 4 μmol · 1^−1 | CCCCc1c(Cl)nc(N)nc1-c1ccc(F)cc1 [Substance 71] | – | – | – | 37.07 ± 6.31; n = 4 % of the controls | 94.59 ± 7.75; n = 4 % of the controls
14 | 3.61 ± 0.22; n = 4 μmol · 1^−1 | CCCCc1c(-c2ccccc2)nc(N)nc1-c1ccc(OC)cc1 [Substance 72] | – | – | – | 55.45 ± 12.92; n = 6 % of the controls | 108.35 ± 5.66; n = 8 % of the controls
15 | 3.92 ± 1.85; n = 4 μmol · 1^−1 | CCCCc1c(-c2ccc(F)cc2)nc(N)nc1-c1ccc(OC)cc1 [Substance 73] | – | – | – | 65.09 ± 4.11; n = 6 % of the controls | 130.12 ± 10.97; n = 12 % of the controls
16 | 38.22 ± 5.59; n = 2 μmol · 1^−1 | CCCCc1c(-c2ccc(OC)cc2)nc(N)nc1-c1ccc(OC)cc1 [Substance 74] | – | – | – | 86.27 ± 4.16; n = 4 % of the controls | 98.75 ± 5.63; n = 12 % of the controls
17 | 4.7 ± 1.17; n = 4 μmol · 1^−1 | CCCCc1c(Cl)nc(N)nc1-c1ccc(OC)cc1 [Substance 75] | – | – | – | 15.96 ± 4.83; n = 4 % of the controls | 86.35 ± 9.29; n = 8 % of the controls
18 | 42.94 ± 11.04; n = 6 μmol · 1^−1 | CCCCc1c(-c2ccccc2)nc(N)nc1-c1ccccn1 [Substance 76] | – | – | – | 45.05 ± 3.55; n = 4 % of the controls | 97.97 ± 5.33; n = 8 % of the controls
19 | 13.48 ± 1.94; n = 4 μmol · 1^−1 | CCCCc1c(-c2ccc(OC)cc2)nc(N)nc1-c1ccccn1 [Substance 77] | – | – | – | 58.20 ± 5.42; n = 6 % of the controls | 100.86 ± 11.78; n = 4 % of the controls
20 | 59.49 ± 9.09; n = 2 μmol · 1^−1 | CCCCc1c(-c2ccccc2)nc(N)nc1-c1cccnc1 [Substance 78] | – | – | – | 52.81 ± 2.91; n = 4 % of the controls | 78.08 ± 5.20; n = 4 % of the controls
21 | 47.26 ± 5.67; n = 2 μmol · 1^−1 | CCCCc1c(-c2ccc(F)cc2)nc(N)nc1-c1cccnc1 [Substance 79] | – | – | – | 62.58 ± 2.32; n = 6 % of the controls | 104.50 ± 6.37; n = 8 % of the controls
22 | 41.84 ± 7.54; n = 2 μmol · 1^−1 | CCCCc1c(-c2ccc(OC)cc2)nc(N)nc1-c1cccnc1 [Substance 80] | – | – | – | 35.18 ± 4.39; n = 4 % of the controls | 103.13 ± 4.24; n = 8 % of the controls
23 | 92.02 ± 8.95; n = 4 μmol · 1^−1 | CCCCc1c(Cl)nc(N)nc1-c1cccnc1 [Substance 82] | – | – | – | 12.07 ± 2.39; n = 8 % of the controls | 45.38 ± 2.92; n = 12 % of the controls
24 | 27.57 ± 8.77; n = 4 μmol · 1^−1 | CCCCc1c(-c2ccccc2)nc(N)nc1-c1cccs1 [Substance 86] | – | – | – | 47.57 ± 8.58; n = 6 % of the controls | 101.59 ± 9.19; n = 8 % of the controls
25 | 23.05 ± 11.33; n = 4 μmol · 1^−1 | CCCCc1c(-c2ccc(F)cc2)nc(N)nc1-c1cccs1 [Substance 87] | – | – | – | 48.59 ± 10.92; n = 3 % of the controls | 125.94 ± 4.49; n = 8 % of the controls
